Tests used:
[1] = IV pharmacokinetics in rats; settings: Sprague Dawley, in vivo, rat, 2 mg/kg, normal saline
Protocol: Sprague Dawley rats were dosed intravenously using a normal saline formulation containing 2 mg/kg of the compounds identified in the below table. The table below summarizes the results of the IV pharmacokinetics.

Plasma stability (Human) = type: in vitro ADME; settings: after 60 minutes
Protocol: (§1) Plasma stability of disclosed compounds was investigated. The following table indicates the percent of compound remaining after 60 minutes.

[2] = Oral pharmacokinetics in rats (plasma, brain, CSF); type: in vivo, Sprague Dawley rats; settings: rat, oral gavage, 10 mg/kg
Protocol: In another experiment, Sprague Dawley rats were dosed per os (oral gavage) using a normal saline formulation containing 10 mg/kg of the compounds identified in the table below. Plasma, brain, and CSF samples were analyzed at various time points over a 24 hour period. The table below summarizes the results of the oral pharmacokinetics, where the first three values (Tmax, Cmax and AUClast) are plasma values.

[3] = Microsomal stability (Rat); type: in vitro ADME; settings: rat microsomes, after 60 minutes
Protocol: Microsomal stability of disclosed compounds was investigated. The following table indicates the percent of compound remaining after 60 minutes.

Plasma stability (Rat) = type: in vitro ADME; settings: after 60 minutes
Protocol: as §1

Sprague Dawley rats = experiment: Porsolt forced swim test; type: in vivo
Protocol: A non-clinical in vivo pharmacology study (Porsolt assay) was performed to measure antidepressant-like effects. The study allowed for the evaluation of the effects of each compound on the Porsolt forced swim test as assessed by the rats' response (reduced floating time) during a 5-minute swimming test.
Male 2-3 month old Sprague Dawley rats were used (Harlan, Indianapolis, Ind.). Rats were housed in Lucite cages with aspen wood chip bedding, maintained on a 12:12 light:dark cycle (lights on at 5 AM), and given ad libitum access to Purina lab chow (USA) and tap water throughout the study.
The Porsolt forced swim test adapted for use in rats was performed as described by Burgdorf et al., (The long-lasting antidepressant effects of rapastinel (GLYX-13) are associated with a metaplasticity process in the medial prefrontal cortex and hippocampus. Neuroscience 308:202-211, 2015). Animals were placed in a 46 cm tall×20 cm in diameter clear glass tube filled to 30 cm with tap water (23±1° C.) for 15 min on the first day (habituation) and 5 min on the subsequent test day. Animals were tested 1 h or 1 week post-dosing with the test compounds or vehicle control (0.5% sodium carboxymethyl cellulose in 0.9% sterile saline). Animals received a 15 min habituation session 1 day before the first 5 min test. Water was changed after every other animal. Animals were videotaped, and floating time as defined as the minimal amount of effort required to keep the animals head above water was scored offline by a blinded experimenter with high inter-rater reliability (Pearson's r>0.9).

NMDAR2B = target: T1, NMDAR2B (Homo sapiens, UniProt Q13224); experiment: NMDAR agonist assay, [3H]MK-801 binding, NMDAR2B expressing HEK cell membranes; type: biochemical; settings: 50 μM glutamate
T1 construct: expressed in transfected cells; host or cells: HEK cells (membrane extract)
Protocol: Assays were conducted as described by Moskal et al., “GLYX-13: a monoclonal antibody-derived peptide that acts as an N-methyl-D-aspartate receptor modulator,” Neuropharmacology, 49, 1077-87, 2005. These studies were designed to determine if the test compounds act to facilitate NMDAR activation in NMDAR2A, NMDAR2B, NMDAR2C or NMDAR2D expressing HEK cell membranes as measured by increases in [3H]MK-801 binding.
In the assay, 300 μg of NMDAR expressing HEK cell membrane extract protein was preincubated for 15 minutes at 25° C. in the presence of saturating concentrations of glutamate (50 μM) and varying concentrations of test compound (1×10^−15M-1×10^−7M), or 1 mM glycine. Following the addition of 0.3 μCi of [3H]MK-801 (22.5 Ci/mmol), reactions were again incubated for 15 minutes at 25° C. (nonequilibrium conditions). Bound and free [3H]MK-801 were separated via rapid filtration using a Brandel apparatus.
In analyzing the data, the DPM (disintegrations per minute) of [3H]MK-801 remaining on the filter were measured for each concentration of test compound or for 1 mM glycine. The DPM values for each concentration of a ligand (N=2) were averaged. The baseline value was determined from the best fit curve of the DPM values modeled using the GraphPad program and the log(agonist) vs. response(three parameters) algorithm was then subtracted from all points in the dataset. The % maximal [3H]MK-801 binding was then calculated relative to that of 1 mM glycine: all baseline subtracted DPM values were divided by the average value for 1 mM glycine. The EC50 and % maximal activity were then obtained from the best fit curve of the % maximal [3H]MK-801 binding data modelled using the GraphPad program and the log(agonist) vs. response(three parameters) algorithm.
The tables below summarize the results for the wild type NMDAR agonists NMDAR2A, NMDAR2B, NMDAR2C, and NMDAR2D, and whether the compound is not an agonist (−), is an agonist (+), or is a strong agonist (++), where column A is based on the % maximal [3H]MK-801 binding relative to 1 mM glycine (−=0; <100%=+; and >100%=++); and column B is based on log EC50 values (0=−; >1×10^−9 M (e.g., −8)=+; and <1×10^−9 M (e.g., −10)++).

T1 sequence (Q13224 27-1484, species assumed, other chains not shown): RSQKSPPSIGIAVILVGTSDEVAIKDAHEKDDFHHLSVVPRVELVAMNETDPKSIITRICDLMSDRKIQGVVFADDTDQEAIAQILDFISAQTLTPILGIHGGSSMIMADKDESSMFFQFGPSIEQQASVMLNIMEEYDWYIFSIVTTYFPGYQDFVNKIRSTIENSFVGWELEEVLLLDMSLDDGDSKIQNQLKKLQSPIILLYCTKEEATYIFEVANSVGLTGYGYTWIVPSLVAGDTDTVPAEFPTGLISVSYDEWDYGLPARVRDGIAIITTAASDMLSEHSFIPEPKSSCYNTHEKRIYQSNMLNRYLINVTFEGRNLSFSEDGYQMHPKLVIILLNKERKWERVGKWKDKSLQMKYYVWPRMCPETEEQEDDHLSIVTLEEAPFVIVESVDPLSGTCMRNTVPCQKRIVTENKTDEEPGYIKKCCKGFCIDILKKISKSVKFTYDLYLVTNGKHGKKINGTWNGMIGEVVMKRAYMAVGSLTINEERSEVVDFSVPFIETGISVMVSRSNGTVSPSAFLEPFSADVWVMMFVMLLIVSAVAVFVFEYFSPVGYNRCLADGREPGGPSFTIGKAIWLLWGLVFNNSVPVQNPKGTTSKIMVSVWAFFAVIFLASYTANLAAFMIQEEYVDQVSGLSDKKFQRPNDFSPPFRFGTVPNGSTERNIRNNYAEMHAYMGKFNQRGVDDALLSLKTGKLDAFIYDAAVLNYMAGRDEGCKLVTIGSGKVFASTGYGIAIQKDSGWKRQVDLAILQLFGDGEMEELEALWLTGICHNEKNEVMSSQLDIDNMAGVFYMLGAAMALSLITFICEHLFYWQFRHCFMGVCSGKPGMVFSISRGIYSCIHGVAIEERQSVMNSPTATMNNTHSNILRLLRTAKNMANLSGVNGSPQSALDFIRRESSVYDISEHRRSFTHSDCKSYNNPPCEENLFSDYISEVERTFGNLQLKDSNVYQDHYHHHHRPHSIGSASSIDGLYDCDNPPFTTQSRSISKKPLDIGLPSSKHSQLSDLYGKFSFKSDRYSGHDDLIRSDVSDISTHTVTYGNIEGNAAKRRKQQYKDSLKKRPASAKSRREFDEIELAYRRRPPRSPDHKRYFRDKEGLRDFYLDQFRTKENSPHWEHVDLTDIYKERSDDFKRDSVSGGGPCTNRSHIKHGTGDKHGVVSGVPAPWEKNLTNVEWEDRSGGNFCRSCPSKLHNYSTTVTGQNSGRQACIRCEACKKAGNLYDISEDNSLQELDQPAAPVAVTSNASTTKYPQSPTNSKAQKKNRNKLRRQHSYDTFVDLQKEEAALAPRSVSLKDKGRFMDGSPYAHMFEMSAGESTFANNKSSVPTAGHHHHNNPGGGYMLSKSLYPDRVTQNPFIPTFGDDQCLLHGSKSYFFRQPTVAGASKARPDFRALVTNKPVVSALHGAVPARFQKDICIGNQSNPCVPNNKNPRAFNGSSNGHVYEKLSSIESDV

- AUC(0-t) [1]: 5280 ng·h/mL
- Cmax [1]: 3790 ng/mL
- clearance [1]: 6.22 mL/min/kg
- half-life [1]: 6.37 h
- Vd ([1]; read-out: Vss): 0.92 L/kg
- Plasma (Human): percent of compound remaining (Plasma stability (Human)): 98%
- bioavailability ([2]; Sprague Dawley, plasma): 70%
- AUC(0-t) ([2]; Sprague Dawley, plasma): 18400 ng·h/mL
- Cmax ([2]; Sprague Dawley, plasma): 8540 ng/mL
- Tmax ([2]; Sprague Dawley, plasma): 0.33 h
- CSF Cmax ([2]; CSF): 4697 ng/mL
- Brain Cmax ([2]; brain): 4833 ng/mL
- Microsomal (Rat): percent of compound remaining [3]: 100%
- Plasma (Rat): percent of compound remaining (Plasma stability (Rat)): 95%
- NMDAR2B A: % maximal [3H]MK-801 binding relative to 1 mM glycine (NMDAR2B): + (<100%=+)
- EC50 (NMDAR2B; read-out: NMDAR2B B: log EC50 (converted)): < 1 nM
SMILES: CC(C)C(=O)N1CCC2(CCCNC2=O)CC1 [Compound AD, 9-isobutyryl-2,9-diazaspiro[5.5]undecan-1-one]
- % reduction in float time (Sprague Dawley rats; 0.00001 mg/kg, 1 wk post-dose): 1%
- Significance vs. vehicle (Sprague Dawley rats; 0.00001 mg/kg, 1 wk post-dose): No
- % reduction in float time (Sprague Dawley rats; 0.00001 mg/kg, 1 h post-dose): 25%
- Significance vs. vehicle (Sprague Dawley rats; 0.00001 mg/kg, 1 h post-dose): No
- % reduction in float time (Sprague Dawley rats; 0.001 mg/kg, 1 wk post-dose): 41%
- Significance vs. vehicle (Sprague Dawley rats; 0.001 mg/kg, 1 wk post-dose): No
- % reduction in float time (Sprague Dawley rats; 0.001 mg/kg, 1 h post-dose): 47%
- Significance vs. vehicle (Sprague Dawley rats; 0.001 mg/kg, 1 h post-dose): Yes
- % reduction in float time (Sprague Dawley rats; 0.1 mg/kg, 1 wk post-dose): 39%
- Significance vs. vehicle (Sprague Dawley rats; 0.1 mg/kg, 1 wk post-dose): No
- % reduction in float time (Sprague Dawley rats; 0.1 mg/kg, 1 h post-dose): 53%
- Significance vs. vehicle (Sprague Dawley rats; 0.1 mg/kg, 1 h post-dose): Yes
- % reduction in float time (Sprague Dawley rats; 10.0 mg/kg, 1 wk post-dose): 37%
- Significance vs. vehicle (Sprague Dawley rats; 10.0 mg/kg, 1 wk post-dose): No
- % reduction in float time (Sprague Dawley rats; 10.0 mg/kg, 1 h post-dose): 39%
- Significance vs. vehicle (Sprague Dawley rats; 10.0 mg/kg, 1 h post-dose): Yes
